For the assay, the target named is T1, MAGL (recombinant wild-type) (Homo sapiens, UniProt Q99685).
T1 sequence (Q99685 1-303): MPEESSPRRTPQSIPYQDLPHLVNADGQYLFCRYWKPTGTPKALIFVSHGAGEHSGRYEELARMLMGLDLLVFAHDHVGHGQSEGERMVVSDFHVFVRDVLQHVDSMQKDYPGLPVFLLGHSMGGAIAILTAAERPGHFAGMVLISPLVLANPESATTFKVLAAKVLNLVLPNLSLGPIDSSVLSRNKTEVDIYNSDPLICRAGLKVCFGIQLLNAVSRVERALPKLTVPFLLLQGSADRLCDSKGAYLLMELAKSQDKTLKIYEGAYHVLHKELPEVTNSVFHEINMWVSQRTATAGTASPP
Description: 4-NPA assay: MAGL inhibitory activity by hydrolysis of 4-nitrophenylacetate, absorbance at 405 nm. It is filed as biochemical. The conditions noted are these: 4-NPA assay (values without footnote [b]). The method in brief:
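Final assay: 1 nM MAGL and 300 μM 4-nitrophenylacetate in 50 mM Tris, 1 mM EDTA, at RT. Compounds (25 μM–1.7 nM, 3-fold steps) were preincubated 15 min with enzyme. A405 was read 5 min after substrate addition and again after 80 min; activity was taken as the difference between reads.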

This note sets out measurements from US20220135591A1, “HETEROCYCLIC COMPOUNDS AS INHIBITORS OF MONOACYLGLYCEROL LIPASE (MAGL)” (Hoffmann-La Roche Inc., priority 2019, published 2022).

`CC1(COc2ccc(C(=O)N3CCN(c4nc5nc(Cl)ccc5o4)CC3)cc2Cl)CC1` [Example 60, [3-chloro-4-[(1-methylcyclopropyl)methoxy]phenyl]-[4-(5-chlorooxazolo[4,5-b]pyridin-2-yl)piperazin-1-yl]methanone]: the IC50 stood at 46 nM. For the molecule `CC(C)(C)c1nc(-c2ccc(C(=O)N3CCN(c4nc5nc(Cl)ccc5o4)CC3)cn2)no1` [Example 61, [6-(5-tert-butyl-1,2,4-oxadiazol-3-yl)-3-pyridyl]-[4-(5-chlorooxazolo[4,5-b]pyridin-2-yl)piperazin-1-yl]methanone], the IC50 was 272 nM. For the molecule `Cc1ccc2oc(N3CCN(C(=O)c4ccc(-c5noc(C(C)(C)C)n5)nc4)CC3)nc2n1` [Example 62, [6-(5-tert-butyl-1,2,4-oxadiazol-3-yl)-3-pyridyl]-[4-(5-methyloxazolo[4,5-b]pyridin-2-yl)piperazin-1-yl]methanone], the IC50 was 871 nM. Regarding `CC(C)(C)c1cn(-c2ccc(C(=O)N3CCN(c4nc5nc(Cl)ccc5o4)CC3)cc2)cn1` [Example 63, [4-(4-tert-butylimidazol-1-yl)phenyl]-[4-(5-chlorooxazolo[4,5-b]pyridin-2-yl)piperazin-1-yl]methanone], the IC50 was found to be 20 nM. On to `Cc1cc(C(=O)N2CCN(c3nc4nc(Cl)ccc4o3)CC2)ccc1OCC(C)(C)C` [Example 64, [4-(5-chlorooxazolo[4,5-b]pyridin-2-yl)piperazin-1-yl]-[4-(2,2-dimethylpropoxy)-3-methyl-phenyl]methanone], for which the IC50 came to 5 nM. In the case of `Cc1ccc2oc(N3CCN(C(=O)c4ccc(OCC(C)(C)C)c(C)c4)CC3)nc2n1` [Example 65, [4-(2,2-dimethylpropoxy)-3-methyl-phenyl]-[4-(5-methyloxazolo[4,5-b]pyridin-2-yl)piperazin-1-yl]methanone], the concentration for half-maximal inhibition (IC50) worked out at 11 nM.

Turning to `Cc1ccc2oc(N3CCN(C(=O)c4ccc(OCC5(C)CC5)c(Cl)c4)CC3)nc2n1` [Example 66, [3-chloro-4-[(1-methylcyclopropyl)methoxy]phenyl]-[4-(5-methyloxazolo[4,5-b]pyridin-2-yl)piperazin-1-yl]methanone], the IC50 turned out to be 87 nM.

`Cc1ccc2oc(N3CCN(C(=O)c4ccc(C5(C)COC5)cc4)CC3)nc2n1` [Example 67, (4-(5-methyloxazolo[4,5-b]pyridin-2-yl)piperazin-1-yl)(4-(3-methyloxetan-3-yl)phenyl)methanone]: the half-inhibitory concentration (IC50) came out at 367 nM. With `Cc1ccc2oc(N3CCN(C(=O)c4ccc(C5(F)CC5)cc4)CC3)nc2n1` [Example 68, (4-(1-fluorocyclopropyl)phenyl)(4-(5-methyloxazolo[4,5-b]pyridin-2-yl)piperazin-1-yl)methanone], the IC50 came out at 4180 nM. On to `CC1(COc2ccc(C(=O)N3CCN(c4nc5nc(Cl)ccc5o4)CC3)cc2F)CC1` [Example 69, [4-(5-chlorooxazolo[4,5-b]pyridin-2-yl)piperazin-1-yl]-[3-fluoro-4-[(1-methylcyclopropyl)methoxy]phenyl]methanone], for which the IC50 was found to be 108 nM.

As for `Cc1ccc2oc(N3CCN(C(=O)c4ccc(-n5cnc(C(C)(C)C)n5)cc4)CC3)nc2n1` [Example 70, [4-(3-tert-butyl-1,2,4-triazol-1-yl)phenyl]-[4-(5-methyloxazolo[4,5-b]pyridin-2-yl)piperazin-1-yl]methanone], the IC50 was 43 nM. The value for `Cc1ccc2oc(N3CCN(C(=O)c4ccc(OCC5(C)CC5)c(F)c4)CC3)nc2n1` [Example 71, [3-fluoro-4-[(1-methylcyclopropyl)methoxy]phenyl]-[4-(5-methyloxazolo[4,5-b]pyridin-2-yl)piperazin-1-yl]methanone] was 382 nM; that for `CC(C)(C)c1ncn(-c2ccc(C(=O)N3CCN(c4nc5nc(Cl)ccc5o4)CC3)cc2)n1` [Example 72, [4-(3-tert-butyl-1,2,4-triazol-1-yl)phenyl]-[4-(5-chlorooxazolo[4,5-b]pyridin-2-yl)piperazin-1-yl]methanone] was 27 nM; that for `Cn1c(CC(C)(C)C)nnc1-c1ccc(C(=O)N2CCN(c3nc4nc(Cl)ccc4o3)CC2)cc1` [Example 73, [4-(5-chlorooxazolo[4,5-b]pyridin-2-yl)piperazin--yl]-[4-[5-(2,2-dimethylpropyl)-4-methyl-1,2,4-triazol-3-yl]phenyl]methanone] was 409 nM. Regarding `Cc1ccc2oc(N3CCN(C(=O)c4cnc(OCC5(C)CC5)c(C)c4)CC3)nc2n1` [Example 142, (5-methyl-6-((1-methylcyclopropyl)methoxy)pyridin-3-yl)(4-(5-methyloxazolo[4,5-b]pyridin-2-yl)piperazin-1-yl)methanone], the IC50 amounted to 106 nM. The value for `Cc1ccc2oc(N3CCN(C(=O)c4cnc(OCC5(C(F)(F)F)CC5)c(C)c4)CC3)nc2n1` [Example 143, (5-methyl-6-((1-(trifluoromethyl)cyclopropyl)methoxy)pyridin-3-yl)(4-(5-methyloxazolo[4,5-b]pyridin-2-yl)piperazin-1-yl)methanone] was 77 nM; that for `O=C(c1cnc(OCC2(C(F)(F)F)CC2)c(F)c1)N1CCN(c2nc3nc(Cl)ccc3o2)CC1` [Example 144, (4-(5-chlorooxazolo[4,5-b]pyridin-2-yl)piperazin-1-yl)(5-fluoro-6-((1-(trifluoromethyl)cyclopropyl)methoxy)pyridin-3-yl)methanone] was 105 nM.

As for `CC1(COc2ncc(C(=O)N3CCN(c4nc5nc(Cl)ccc5o4)CC3)cc2F)CC1` [Example 145, (4-(5-chlorooxazolo[4,5-b]pyridin-2-yl)piperazin-1-yl)(5-fluoro-6-((1-methylcyclopropyl)methoxy)pyridin-3-yl)methanone], the IC50 came out at 216 nM. In the case of `Cc1ccc2oc(N3CCN(C(=O)c4cnc(OCC5(C)CC5)c(Cl)c4)CC3)nc2n1` [Example 146, (5-chloro-6-((1-methylcyclopropyl)methoxy)pyridin-3-yl)(4-(5-methyloxazolo[4,5-b]pyridin-2-yl)piperazin-1-yl)methanone], the IC50 stood at 135 nM. `Cc1ccc2oc(N3CCN(C(=O)c4cnc(OCC5(C(F)(F)F)CC5)c(Cl)c4)CC3)nc2n1` [Example 147, (5-chloro-6-((1-(trifluoromethyl)cyclopropyl)methoxy)pyridin-3-yl)(4-(5-methyloxazolo[4,5-b]pyridin-2-yl)piperazin-1-yl)methanone]: the IC50 turned out to be 128 nM. For `Cc1ccc2oc(N3CCN(C(=O)c4cc(Cl)cc(N5CCS(=O)(=O)CC5)c4)CC3)nc2n1` [Example 175, [3-chloro-5-(1,1-dioxo-1,4-thiazinan-4-yl)phenyl]-[4-(5-methyl-[1,3]oxazolo[4,5-b]pyridin-2-yl)piperazin-1-yl]methanone], the half-inhibitory concentration (IC50) amounted to 1520 nM.

`CC(=O)N1CCN(c2cc(Cl)cc(C(=O)N3CCN(c4nc5nc(C)ccc5o4)CC3)c2)CC1` [Example 176, 1-[4-[3-chloro-5-[4-(5-methyl-[1,3]oxazolo[4,5-b]pyridin-2-yl)piperazine-1-carbonyl]phenyl]piperazin-1-yl]ethanone]: the IC50 was determined as 4150 nM. Next, `Cc1ccc2oc(N3CCN(C(=O)c4cc(Cl)cc(N5CCC(F)(F)CC5)c4)CC3)nc2n1` [Example 177, [3-chloro-5-(4,4-difluoropiperidin-1-yl)phenyl]-[4-(5-methyl-[1,3]oxazolo[4,5-b]pyridin-2-yl)piperazin-1-yl]methanone]: 3160 nM.
